Test: xn = mol fraction of the nth substance listed
Settings: 100.5 kPa, Liquid

CC(=O)OCCC(C)C [3-methylbutyl ethanoate] + CCO
Settings	mass density, 308.15 K [kg/m3]	mass density, 318.15 K [kg/m3]	viscosity, 308.15 K [mPa·s]	viscosity, 318.15 K [mPa·s]
x1 = 0.05	785.74	776.69	0.847	0.716
x1 = 0.1	793.84	784.6	0.799	0.68
x1 = 0.15	800.9	791.5	0.762	0.651
x1 = 0.2	807.21	797.69	0.735	0.63
x1 = 0.25	812.85	803.22	0.716	0.615
x1 = 0.3	817.86	808.15	0.701	0.605
x1 = 0.35	822.44	812.65	0.689	0.596
x1 = 0.4	826.53	816.69	0.68	0.59
x1 = 0.45	830.32	820.42	0.675	0.586
x1 = 0.5	833.79	823.86	0.671	0.583
x1 = 0.55	836.99	827.03	0.668	0.582
x1 = 0.6	839.97	829.99	0.667	0.582
x1 = 0.65	842.71	832.72	0.667	0.584
x1 = 0.7	845.33	835.33	0.67	0.588
x1 = 0.75	847.75	837.75	0.675	0.594
x1 = 0.8	850.04	840.05	0.68	0.601
x1 = 0.85	852.2	842.22	0.688	0.609
x1 = 0.9	854.28	844.34	0.697	0.618
x1 = 0.95	856.25	846.32	0.703	0.625
x1 = 1	858.07	848.17	0.704	0.627

— the NIST ThermoML archive (doi:10.1021/je050389b)
